Experimental data published in patent publication US8278072B1, “Method for synthesis of sialylated products using reversible sialylation” (Health Research, Inc., priority 2007, dated 2012).

Molecular target: T1, ST3Gal-II (Rattus norvegicus, UniProt Q11205)
T1 construct: purchased Calbiochem
T1 sequence (Q11205 1-350): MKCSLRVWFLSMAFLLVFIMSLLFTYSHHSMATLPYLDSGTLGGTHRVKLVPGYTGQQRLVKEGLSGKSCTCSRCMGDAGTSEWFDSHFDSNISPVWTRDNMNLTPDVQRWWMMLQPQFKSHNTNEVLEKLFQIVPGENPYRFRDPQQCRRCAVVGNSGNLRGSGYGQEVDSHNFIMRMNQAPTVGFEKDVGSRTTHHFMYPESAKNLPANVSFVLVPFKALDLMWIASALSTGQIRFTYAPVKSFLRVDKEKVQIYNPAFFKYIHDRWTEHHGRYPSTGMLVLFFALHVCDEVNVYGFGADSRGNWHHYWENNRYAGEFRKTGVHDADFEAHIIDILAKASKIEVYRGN
Assay: Reverse sialylation equilibrium constant (Keq) and 5′-CMP dose dependence
Assay type: biochemical
Settings: donor 0.15 mM [2], 0.15 mU ST3Gal-II, 2 hours; read-out: concentration of 5′-CMP that mediated half-maximal transfer of [9-3H]NeuAc
Experimental: FIG. 2. Equilibrium constant. a. Reversible sialyltransferase activity at increasing concentration of 5′-CMP. 0.15 mM of donor [9-^3H]NeuAcα2,3Galβ1,3(4-FGlcNAcβ1,6)GalNAcα-O-Bn [9-^3H[2]] was incubated with varying concentrations of 5′-CMP and 0.15 mU ST3Gal-II under conditions described in FIG. 1 for 2 hours. The consumption of the [9-^3H]NeuAc benzyl glycoside donor was measured by subjecting the incubation mixture to Sep-Pak C18 fractionation, which binds the donor and not CMP-[9-^3H]NeuAc. The reaction proceeded to ½ the maximum extent at 80 μM 5′-CMP. b. Equilibrium constant Keq (=0.35) calculated for data in panel a. c. Varying concentrations of 5′-CMP was sialylated with ST3Gal-II (2.0 mU) using either 0.15 mM (panel c) or 1.5 mM (not shown) sialyl donor [9-^3H]NeuAcα2,3Galβ1,3GalNAcβ1,3Galα-O-Me [9-^3H[3]] for 4 hours. The product CMP-[9-^3H]NeuAc and the unused [9-^3H[3]] were separated and quantitated by Dowex-1-Formate method. d. Equilibrium constant, Keq=98.9. Diamonds denote data from 1.5 mM runs while data from 0.15 mM runs are depicted by squares.
a) Biogel P2 chromatography: A Biogel P2 column (Fine Mesh; 1.0×116.0 cm) was used with 0.1 M pyridine acetate (pH5.4) as the eluent at room temperature. […] Fractions of 1.0 ml were collected. The bound material was then eluted with 0.5M GlcNAc or 0.2M Gal in the same buffer. […] Calculation of equilibrium constant, Keq: Equilibrium constant was calculated for selected reversible bimolecular reactions that are denoted by:
[formula] Here, [9-^3H]D* denotes the radiolabeled donor and D′ is the donor after removal of sialic acid. Similarly, A and [9-^3H]A* denote the acceptor before and after incorporation of NeuAc. In each run, unreacted [9-^3H]D* and product [9-^3H] A* are measured using radioactivity measurements. The equilibrium constant (Keq=kreverse/kforward, dimensionless units) are then determined using the following equation, where terms in square brackets denote concentrations:
[formula] [D0] and [A0] are initial donor and acceptor concentrations. A plot of [D*]/([D0]−[D*]) versus [A*]/([A0]−[A*]) yields Keq from slope data. Keq<1 implies that the forward reaction is favored and the reaction proceeds to the right side to form [9-^3H]A* efficiently. Liquid Chromatography Coupled with Tandem Mass Spectrometry (LC/MS/MS)
Similar results were observed upon increasing concentrations of 5′-CMP when [9-^3H]NeuAcα2,3Galβ1,3(4-FGlcNAcβ1,6) GalNAcα-O-Bn [9-^3H[2]] was donor (FIG. 2a, b). The concentration of 5′-CMP that mediated half-maximal transfer of [9-^3H]NeuAc was 80 μM. The bimolecular equilibrium constant (Keq) for this reaction was 0.35 (dimensionless units, Table I). Indeed, the Keq varied depending on the donor and it was 98.9 when the donor was based on the globo glycolipid, [9-^3H]NeuAcα2,3Galβ1,3GalNAcβ1,3 Gala-O-Me [[9-^3H] [3]] (FIG. 2c, d). Upon comparing and [3], it is apparent that reverse sialylation proceeds more effectively in the case of [2]. To further confirm the above estimates of Keq for core-2 based structures, we also calculated this parameter for our previously published data where [9-^3H]CMP-NeuAc was donor and mucin core-2 tetrasaccharide Galβ1,4GlcNAcβ1,6(Galβ1,3)GalNAcα-O-Bn was acceptor. In this case, Keq measured with respect to the rate of mucin core-2 sialylation was 5.55 (data not shown), which translates to a reverse sialylation Keq of 0.18.

EC50: 80 µM
SMILES: Nc1ccn([C@@H]2O[C@H](COP(=O)(O)O)[C@@H](O)[C@H]2O)c(=O)n1 [5′-CMP, Cytidine 5′-monophosphate]
